Each structure is given as a SMILES string. “And” between values parts separate entries of the source, which are not always exact repeats. Identical values can stand only once.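 Five concentrations, 48 hours, 96-well plates. GI50 is the concentration that inhibits growth by half. TGI denotes the concentration required for complete inhibition of growth.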

The values that follow come from PubChem BioAssay (NCI).

Among the test systems are MALME-3M melanoma; M14 melanoma; OVCAR-8 ovarian; KM12 colon; SNB-19 CNS; CCRF-CEM leukemia; HCT-116 colon; COLO 205 colon; RXF 393 renal; UACC-257 melanoma.
Holding throughout (assay): growth of human tumour cells (NCI), 48 h

As to `c1ccc([P+](CCC[P+](c2ccccc2)(c2ccccc2)c2ccccc2)(c2ccccc2)c2ccccc2)cc1`, the TGI in the assay with MALME-3M melanoma, in the assay on M14 melanoma, with OVCAR-8 ovarian, in the assay on KM12 colon, in the assay on SNB-19 CNS and with CCRF-CEM leukemia was above 100 µM each time. For the same compound, the TGI was above 100 µM in the assay on HCT-116 colon; 96.6 µM and 10.5 µM with COLO 205 colon; above 100 µM with RXF 393 renal; > 100 µM and 41.1 µM in the assay with UACC-257 melanoma. Also, the GI50 in the assay with M14 melanoma is 27.6 µM; in the assay on OVCAR-8 ovarian, 10.5 µM; in the assay on KM12 colon, 3.86 µM; with SNB-19 CNS, 8.95 µM; in the assay with CCRF-CEM leukemia, 7.26 µM; in the assay on HCT-116 colon, 7.27 µM. Moreover, the GI50 in the assay on COLO 205 colon is 2.89 µM; with UACC-257 melanoma, 2.77 µM.

Turning to `CC(=O)OC1C/C(C)=C/[C@H](O)CC(C)/C=C/[C@@]2(C)CCC(C(C)(C)O)C12` (some centres not stated), the TGI with MALME-3M melanoma, in the assay on M14 melanoma, in the assay on OVCAR-8 ovarian, with KM12 colon, in the assay with SNB-19 CNS and in the assay on CCRF-CEM leukemia was above 100 µM in each case. The TGI with HCT-116 colon, with COLO 205 colon, with RXF 393 renal and with UACC-257 melanoma was above 100 µM each time.

As to `COc1cc(/C=N/O)nc(-c2ccccn2)c1`, the GI50 in the assay on MALME-3M melanoma was 0.431 µM; in the assay on OVCAR-8 ovarian it was 0.348 µM; in the assay with KM12 colon, 0.385 µM; with SNB-19 CNS, 0.558 µM; with CCRF-CEM leukemia, 0.207 µM; with HCT-116 colon it was 0.351 µM. For the same compound, the GI50 with COLO 205 colon was 0.305 µM; in the assay with RXF 393 renal, 0.723 µM; with UACC-257 melanoma it was 0.679 µM. Further, the TGI is 12.2 µM with MALME-3M melanoma; 4.98 µM in the assay on M14 melanoma; 22.8 µM in the assay on OVCAR-8 ovarian; above 100 µM with KM12 colon; above 100 µM in the assay with SNB-19 CNS; above 33.2 µM in the assay on CCRF-CEM leukemia. Further, the TGI in the assay with HCT-116 colon was above 100 µM; with COLO 205 colon, above 100 µM; in the assay with RXF 393 renal, 14.8 µM; in the assay with UACC-257 melanoma, 9.43 µM.

Consider `COC(=O)C(C(=O)C(=O)Nc1ccc(C)cc1C)c1nc2ccc([N+](=O)[O-])cc2[nH]c1=O` (configuration not stated), for which the TGI in the assay on MALME-3M melanoma, in the assay with M14 melanoma, in the assay with OVCAR-8 ovarian, in the assay with KM12 colon, in the assay on SNB-19 CNS and with CCRF-CEM leukemia was above 100 µM throughout. The TGI in the assay with HCT-116 colon, in the assay on COLO 205 colon, in the assay on RXF 393 renal and in the assay on UACC-257 melanoma was above 100 µM in each case.

Take `COC(=O)NN=C1C(C)(C)C(=NNC(=O)OC)C1(C)C`: the TGI was above 100 µM in the assay with MALME-3M melanoma; above 100 µM with M14 melanoma; above 55.9 µM in the assay with OVCAR-8 ovarian; above 100 µM in the assay with KM12 colon; above 100 µM with SNB-19 CNS; above 72.3 µM in the assay on CCRF-CEM leukemia. Moreover, the TGI is above 62.5 µM in the assay with HCT-116 colon, above 56 µM with COLO 205 colon, above 100 µM with RXF 393 renal and above 100 µM with UACC-257 melanoma.

For `CC1(C)CC(O)CCCCCCOc2c(CN)cccc2NC(=O)c2nc(cnc2N)-c2ccc(cc2)S1(=O)=O` (configuration not stated), the GI50 in the assay on MALME-3M melanoma is 1.31 µM; with M14 melanoma, 0.0927 µM; with OVCAR-8 ovarian, 2.14 µM; with KM12 colon, 0.843 µM; with SNB-19 CNS, 1.66 µM; with CCRF-CEM leukemia, below 0.01 µM. Moreover, the GI50 in the assay on HCT-116 colon is 0.187 µM; with COLO 205 colon, 0.394 µM; with RXF 393 renal, below 0.01 µM; in the assay with UACC-257 melanoma, 1.52 µM. Moreover, the TGI in the assay on MALME-3M melanoma was found to be 2.81 µM; in the assay on M14 melanoma, 2.58 µM; with OVCAR-8 ovarian, 5.87 µM; with KM12 colon, 2.59 µM; with SNB-19 CNS, 4.46 µM; in the assay on CCRF-CEM leukemia it was 5.53 µM. For the same compound, the TGI in the assay on HCT-116 colon worked out at 1.03 µM; with COLO 205 colon, 2.08 µM; in the assay on RXF 393 renal, 1.54 µM; in the assay with UACC-257 melanoma it was 3.4 µM.

`CCCCc1oc2ccccc2c1C(=O)c1cc(I)c(OCCN(CC)CC)c(I)c1`: the GI50 in the assay with MALME-3M melanoma is 1.86 µM; in the assay with M14 melanoma, 2.18 µM; with OVCAR-8 ovarian it was 3.37 µM and 11 µM; with KM12 colon, 1.84 µM; in the assay with SNB-19 CNS, 2.04 µM; with CCRF-CEM leukemia it was 1.82 µM. The GI50 with HCT-116 colon was 1.82 µM; with COLO 205 colon, 1.89 µM; in the assay with RXF 393 renal it was 1.26 µM; with UACC-257 melanoma, 2.32 µM. Also, the TGI in the assay with MALME-3M melanoma is 3.71 µM and 8.57 µM; in the assay with M14 melanoma it was 4.78 µM; with OVCAR-8 ovarian it was 13.2 µM and 92.5 µM; with KM12 colon, 3.61 µM and 12.3 µM; with SNB-19 CNS it was 5.35 µM and 18.7 µM; in the assay with CCRF-CEM leukemia, 4.35 µM and 12 µM. In addition, the TGI is 3.88 µM and 9.07 µM in the assay on HCT-116 colon; 3.4 µM and 7.84 µM with COLO 205 colon; 2.97 µM and 8.79 µM in the assay with RXF 393 renal; 6.42 µM and 9.04 µM in the assay with UACC-257 melanoma.

For the compound `CN(C)CCN1C(=O)c2cccc3c(-c4ccc5ncn(C6CCCCC6)c5c4)ccc(c23)C1=O`, the GI50 in the assay on MALME-3M melanoma is 1.9 µM; with M14 melanoma, 1.7 µM; in the assay with OVCAR-8 ovarian it was 1.21 µM; in the assay on KM12 colon it was 2.24 µM; in the assay with SNB-19 CNS, 1.88 µM; in the assay on CCRF-CEM leukemia, 1.84 µM. Besides, the GI50 in the assay with HCT-116 colon was 0.422 µM; with COLO 205 colon it was 1.21 µM; in the assay with RXF 393 renal, 1.35 µM; in the assay with UACC-257 melanoma, 3.19 µM. Further, the TGI in the assay with MALME-3M melanoma was 3.93 µM; in the assay on M14 melanoma it was 3.61 µM; in the assay with OVCAR-8 ovarian, 9.76 µM; in the assay on KM12 colon, 13.2 µM; with SNB-19 CNS, 20.1 µM; in the assay with CCRF-CEM leukemia, 7.22 µM. Also, the TGI with HCT-116 colon is 10.9 µM; with COLO 205 colon it was 4.14 µM; in the assay with RXF 393 renal it was 2.96 µM; in the assay with UACC-257 melanoma, 8.41 µM.

For the compound `CC(C)(C)[Si](Nc1ccccc1)(c1ccccc1)c1ccccc1`, the TGI in the assay on MALME-3M melanoma amounted to 41.8 µM; in the assay with M14 melanoma it was 27.5 µM; with OVCAR-8 ovarian, 34 µM; in the assay on KM12 colon, 27.4 µM; in the assay on SNB-19 CNS, 27.1 µM; with CCRF-CEM leukemia it was 39.7 µM. Also, the TGI was 20.6 µM in the assay with HCT-116 colon, 29.4 µM with COLO 205 colon, 26.5 µM in the assay on RXF 393 renal and 28.4 µM with UACC-257 melanoma.
